{"source": "patent US20090181080A1", "about": "“Oral cannabinnoid liquid formulations and methods of treatment” (Insys Therapeutics Inc., priority 2007, published 2009)", "test": "Threshold concentration versus duration of effect analysis of Example 35 data", "assay_type": "in vivo, human", "experimental": "In Example 38, the individual concentration-time profiles for soft gelatin capsules of Example 35 were analyzed to identify the mean duration of effect in that subject population, for a range of threshold concentrations (e.g., minimum effective concentrations). The results are depicted in FIG. 4.", "key": {"[1]": {"conditions": "5 mg dose, by dose-proportional scaling"}, "[2]": {"conditions": "dose of 10 mg dronabinol, soft gelatin capsules of Example 35 data"}}, "data": [{"smiles": "CCCCCc1cc(O)c2c(c1)OC(C)(C)[C@@H]1CCC(C)=C[C@@H]21", "note": "[dronabinol, Delta-9-Tetrahydrocannabinol]", "values": [{"measurement": "threshold concentration for a 4 hour duration of effect", "setting": "[1]", "result": "approximately 0.28 ng/mL"}, {"measurement": "threshold concentration for a 6 hour duration of effect", "setting": "[1]", "result": "~0.12", "unit": "ng/mL"}, {"measurement": "threshold concentration required for a 4 hour duration of effect", "setting": "[2]", "result": "approximately 0.56 ng/mL"}, {"measurement": "threshold concentration required for a 6 hour duration of action", "setting": "[2]", "result": "approximately 0.24 ng/mL"}]}]}
